{
  "source": "patent US20160279110A1",
  "about": "“COMPOSITIONS AND METHODS FOR TREATING CANCER” (UNIVERSITY OF ROCHESTER, priority 2015, published 2016)",
  "key": {"NMD [1]": {"test_system": "NMD", "test": "NMD reporter mRNA levels (β-Gl Ter, GPx1 Ter) by RT-qPCR in HeLa cells exposed to NMDI-1", "type": "cell-based, human", "experimental": "Norm encodes a PTCfree version of GPx1 mRNA, whereas Ter encodes mRNA harboring a PTC at codon 46. Cells were re-plated 16 h after transfection at equivalent densities and exposed 24 h later to the indicated concentration of NMDI-1 or, as a positive control for NMD inhibition, cycloheximide (CHX). The levels of β-Gl reporter mRNAs were normalized to the level of the MUP reference mRNA, and the normalized levels of β-Gl Ter mRNA are presented as a percentage of the normalized level of β-Gl Norm mRNA. FIG. 16b is essentially as in a, except GPx1Ter mRNA was analyzed. FIG. 16c is essentially as in b, except MCF7 cells were used. FIG. 16d is essentially as in b, except MCF7 cells were used.\nCells were homogenized, and RNA was purified using RNeasy mini kits (Qiagen). To ensure linearity of both reverse transcription (RT) and qPCR analyses, 17 standard concentrations were constructed using two-fold serial dilutions of total-cell RNA, beginning with 2 μg. Experimental sample input was 200 ng of RNA. RT was conducted using Superscript III (Invitrogen) according to manufacturer's directions and 100 ng of random hexamer (Invitrogen) in a 20 μl reaction volume. Thermal cycling was as follows: 25° C. for 5 min; 42° C. for 60 min; 50° C. for 60 min; and 75° C. for 10 min. Reactions were diluted to a final volume of 80 μl with water and used for qPCR.\nqPCR was conducted using FAST SYBR green master mix (ABI; Foster City, Calif.) according to manufacturer's directions. Cycling was done using a 7500 FAST Real Time machine (ABI) with default conditions, and thermal denaturation curves were generated for each run. Primer sequences were as follows, with mRNA primers sets containing at least one primer spanning an exon-exon junction, and pre-mRNA primer sets containing at least one primer that hybridizes to intronic sequences. Primers for Gl mRNA, GPx1 mRNA and MUP mRNA were described in Kurosaki et al.\nTherefore, a small-molecule inhibitor of NMD, NMDI-1 (FIG. 8c), that interferes with the interaction between UPF1 and SMG5 was utilized. Application of NMDI-1 and the consequential attenuation of NMD may more fully replicate the complete inhibition of NMD mediated by the UPF1 CP generation explored here as well as UPF1 dephosphorylation and the generation of additional UPF1 CPs seen with doxorubicin (FIG. 1c)."}, "NMD [2]": {"test_system": "NMD", "test": "NMD reporter mRNA levels by RT-qPCR in MCF7 cells exposed to NMDI-1", "type": "cell-based, human"}, "HeLa cells": {"test_system": "HeLa cells", "set-up": "reduction in cell viability relative to doxorubicin alone: dose or concentration left out as unconfirmed", "procedure": "Viable cells were quantitated using a Cell Titer Glo assay. […] (d) HeLa cells were plated as in b and exposed to one of three treatments 24 h later—the indicated doxonibicin concentration is provided for 16 h either alone (left histogram) or in the presence of 10 μM NMDI-1 (middle histogram). Alternatively, cells were preincubated with 10 M NMDI-1 for 8 h, washed three times and incubated with the indicated concentrations of doxorubicin for 16 h in the absence of NMDI-1. Viable cells were quantitated as in b. Error bars=S.E.M, *=P<0.05 relative to doxorubicin alone treatment using the Student's t-test. n=4 biological replicates.\nCells were plated in white opaque 96-well plates using multichannel pipettors for accuracy and treated as described in the figure legends. CellTiter-Glo luminescent assays (Promega) were performed according to manufacturer's directions. Data were collected using a SpectraMax M2 plate reader.\nFirst, HeLa cells were challenged with various concentrations of doxorubicin alone. Second, cells were continuously co-incubated for 16 h with doxorubicin and NMDI-1. Third, a transient pulse of NMDI-1 was applied for 8 h, cells were washed to remove NMDI-1, and doxorubicin was then applied."}, "[3]": {"conditions": "NMDI-1 at a concentration of 10"}},
  "note": "Where two headings read alike, the source gives them in different places.",
  "data": [
    {"smiles": "Cc1c2ccnc(Cl)c2c(C)c2c1[nH]c1ncccc12", "note": "[NMDI-1]", "values": [
      {"measurement": "inhibition of NMD in HeLa cells", "setting": "NMD [1]", "value": "effective in HeLa cells"},
      {"measurement": "raising the level of PTC-bearing glutathione peroxidase 1 (GPx1) mRNA", "setting": "NMD [1]; [3]", "value": "~1.6", "unit": "fold"},
      {"measurement": "raising the level of β-Gl Ter mRNA", "setting": "NMD [1]; [3]", "value": "~3.8", "unit": "fold"},
      {"measurement": "inhibition of NMD in HeLa cells", "setting": "NMD [1]; listed as NMD-1", "value": "potent inhibitor of NMD"},
      {"measurement": "effect on NMD in MCF7 cells", "setting": "NMD [2]", "value": "no effect"},
      {"measurement": "cell viability at sub-lethal doxorubicin", "setting": "HeLa cells; 0.5 μM doxorubicin, doxorubicin alone, co-treatment or pre-treatment with NMDI-1", "value": "none of the treatments significantly affected viability"},
      {"measurement": "reduction in cell viability relative to doxorubicin alone", "setting": "HeLa cells; NMDI-1 pulse 8 h, washed, then doxorubicin 16 h", "value": "~2.5", "unit": "fold"},
      {"measurement": "cell viability relative to doxorubicin treatment alone", "setting": "HeLa cells; continuous co-incubation 16 h with doxorubicin and NMDI-1", "value": "statistically significant decreases in cell viability"}
    ]}
  ]
}
